# Square brackets hold non-standard residues; d marks the D form. Peptide text beside a SMILES is read from it. Dap = NC[C@H](N)C(=O)O
# Assays:
# [1] = tested on: Bacillus subtilis (ATCC 23857); settings: ATCC 23857
# From the text: (§1) With respect to the determination of antibacterial activity and antifungal activity of the antibacterial polypeptide compounds, the bacterial strains employed included: E. coli (ATCC 25922), E. coli (ATCC 43837), Pseudomonas aeruginosa (ATCC 27853), Klebsiella pneumoniae (ATCC 700603), Cronobacter sakazakii (ATCC 29544), Staphylococcus aureus (ATCC 29213), Bacillus subtilis (ATCC 23857) and Staphylococcus epidermidis (ATCC 12228); and the fungal strains employed included Candida albicans (ATCC 14053), Candida glabrata (ATCC 2001), Candida parapsilosis (ATCC 22019), Candida tropicalis (ATCC 750) and Candida krusei (ATCC 6258), all of which were standard strains from American Type Culture Collection. In addition, drug-resistant strains S-1a, S-2a, S-3a, S-4a, E-1b, E-2b, E-3b, E-4b, E-5b, P-1c, P-2c, P-3c, P-4c, P-5c, and clinically isolated fungal strains Candida glabrata 2-1 and Candida albicans 14-1, 14-2 and 14-3 were employed, all which were clinically isolated.
# (§2) Simply, a proper amount of the cryopreserved bacterium or fungus was added to fresh MH/SD medium, and cultured on a shaker overnight at 180 rpm at 37° C. The obtained cells were seeded again and cultured on a shaker for 4-5 hours to obtain cells in logarithmic phase. The resulting cells were added to a 96-well plate (1×10^5 CFU/ml, 100 μL/well), and then 100 μL of polypeptide with different concentrations (1-256 μM) twice the final concentrations was added to corresponding well according to the 2-fold serial dilution method. The fresh medium was used as a negative control, which was prepared in triplicate for each concentration. After dosing, the 96-well plate was placed in an incubator at constant 37° C. and humidity for 12 hours to observe the results. According to naked eye observations, the concentration of the compound in the first transparent well following the turbid wells was recorded as the MIC of the compound, namely, the MIC value of the compound to the bacterium or fungus.
# [2] = tested on: C. albicans ATCC14053; settings: ATCC14053
# From the text: as §1, §2
# [3] = tested on: C. glabrata ATCC22019; settings: ATCC22019
# From the text: as §1, §2
# [4] = tested on: C. krusei ATCC6258; settings: ATCC6258
# From the text: as §1, §2
# [5] = tested on: C. parapsilosis ATCC2001; settings: ATCC2001
# From the text: as §1, §2
# [6] = tested on: C. tropicalis ATCC750; settings: ATCC750
# From the text: as §1, §2
# [7] = tested on: Cronobacter sakazakii (ATCC 29544); settings: ATCC 29544
# From the text: as §1, §2
# [8] = tested on: E. coli (ATCC 25922); settings: ATCC 25922
# From the text: as §1, §2
# [9] = tested on: Pseudomonas aeruginosa (ATCC 27853); settings: standard strain
# From the text: as §1, §2
# [10] = tested on: Staphylococcus aureus (ATCC 29213); settings: ATCC 29213
# From the text: as §1, §2
# [11] = tested on: Staphylococcus epidermidis (ATCC 12228); settings: ATCC 12228
# From the text: as §1, §2
# [12] = tested on: E-1b, clinical isolated drug-resistant strain ESBL; settings: strain E-1b (ESBL)
# From the text: as §1, §2
# [13] = tested on: E-2b, clinical isolated drug-resistant strain ESBL; settings: strain E-2b (ESBL)
# From the text: as §1, §2
# [14] = tested on: E-3b, clinical isolated drug-resistant strain ESBL; settings: strain E-3b (ESBL)
# From the text: as §1, §2
# [15] = tested on: E-4b, clinical isolated drug-resistant strain ESBL; settings: strain E-4b (ESBL)
# From the text: as §1, §2
# [16] = tested on: E-5b, clinical isolated drug-resistant strain ESBL; settings: strain E-5b (ESBL)
# From the text: as §1, §2
# [17] = tested on: P-1c, clinical isolated drug-resistant strain PA; settings: strain P-1c (PA)
# From the text: as §1, §2
# [18] = tested on: P-2c, clinical isolated drug-resistant strain PA; settings: strain P-2c (PA)
# From the text: as §1, §2
# [19] = tested on: P-3c, clinical isolated drug-resistant strain PA; settings: strain P-3c (PA)
# From the text: as §1, §2
# [20] = tested on: P-4c, clinical isolated drug-resistant strain PA; settings: strain P-4c (PA)
# From the text: as §1, §2
# [21] = tested on: P-5c, clinical isolated drug-resistant strain PA; settings: strain P-5c (PA)
# From the text: as §1, §2
Compound,MIC B. subtilis ATCC23857 [1] [µM],MIC C. albicans ATCC14053 [2] [µM],MIC C. glabrata ATCC22019 [3] [µM],MIC C. krusei ATCC6258 [4] [µM],MIC C. parapsilosis ATCC2001 [5] [µM],MIC C. tropicalis ATCC750 [6] [µM],MIC C. sakazakii ATCC29544 [7] [µM],MIC C. coli ATCC25922 [8] [µM],MIC P. aerugmosa ATCC27853 [9] [µM],MIC S. aureus ATCC29213 [10] [µM],MIC S. epidermidis ATCC12228 [11] [µM],further results
"CC(C)C[C@H](NC(=O)[C@H](CCCCN)NC(=O)[C@H](CC(C)C)NC(=O)[C@H](CCCCN)NC(=O)[C@H](CC(C)C)NC(=O)[C@H](CCN)NC(=O)[C@H](Cc1ccccc1)NC(=O)[C@@H]1CCCN1)C(N)=O [Compound 3, Pro-Phe-Dab-Leu-Lys-Leu-Lys-Leu-NH2] (HELM PEPTIDE1{P.F.[Dab].L.K.L.K.L.[am]}$$$$V2.0)",16,32,32,64,16,32,32,32,32,128,16,–
"CC(C)C[C@H](NC(=O)[C@H](CCN)NC(=O)[C@H](CC(C)C)NC(=O)[C@H](CO)NC(=O)[C@H](CC(C)C)NC(=O)[C@H](CCN)NC(=O)[C@H](Cc1c[nH]c2ccccc12)NC(=O)[C@@H]1CCCN1)C(N)=O [Compound 10, Pro-Trp-Dab-Leu-Ser-Leu-Dab-Leu-NH2] (HELM PEPTIDE1{P.W.[Dab].L.S.L.[Dab].L.[am]}$$$$V2.0)",16,32,16,32,16,8,8,16,32,32,16,–
"CC(C)C[C@H](NC(=O)[C@H](CN)NC(=O)[C@H](CC(C)C)NC(=O)[C@H](CN)NC(=O)[C@H](CC(C)C)NC(=O)[C@H](CN)NC(=O)[C@H](Cc1c[nH]c2ccccc12)NC(=O)[C@@H]1CCCN1)C(N)=O [Compound 11, Pro-Trp-Dap-Leu-Dap-Leu-Dap-Leu-NH2] (H-PW[Dap]L[Dap]L[Dap]L-NH2)",16,64,16,32,16,16,16,16,64,32,16,–
H-PFKLKLHL-NH2 [Compound 1],32,32,32,64,32,32,32,32,32,128,32,–
H-PFRLRLHL-NH2 [Compound 5],16,16,16,64,16,32,32,16,32,128,32,–
H-PFRLRLRL-NH2 [Compound 7],8,8,8,32,8,32,32,8,8,64,16,–
H-PFRLSLHL-NH2 [Compound 4],16,32,32,32,16,32,32,32,32,128,32,–
H-PFRLSLRL-NH2 [Compound 6],16,32,8,32,16,16,16,8,32,64,16,–
H-PWRLSLHL-NH2 [Compound 12],16,32,16,32,16,16,16,16,32,32,8,–
H-PWRLSLRL-NH2 [Compound 14],8,8,8,32,8,8,8,8,8,32,16,–
gentamicin [reference compound],–,–,–,–,–,–,–,–,–,–,–,MIC [12]: 50 µM; MIC [13]: 50 µM; MIC [14]: 50 µM; MIC [15]: 50 µM; MIC [16]: 50 µM; MIC [17]: 50 µM; MIC [18]: 50 µM; MIC [19]: 25 µM; MIC [20]: 50 µM; MIC [21]: 50 µM
